Source: patent US20160031935A1, “SMALL MOLECULE MODULATORS OF PCSK9 AND METHODS OF USE THEREOF” (ADAERATA, LIMITED PARTNERSHIP, priority 2013, published 2016)

Assays:
Type in all cases: cell-based, human
[1] = tested on: cell surface LDLR activity; test: Dil-LDL uptake assay in HepG2 naïve cells; conditions: 33.3 μM; HepG2 naïve cells
Procedure: HepG2 naive cells and HEK293 naive cells were plated in 96-well plates (CellBind black plate with clear bottom (Corning; Cat #3340)) at a density of 25,000 cells/well, in complete media (DMEM high glucose (+sodium pyruvate for HepG2) (Wisent)+10% FBS). After 20 hours, cells were washed for 30 min with serum free DMEM media (100 μl/well), the wash media was removed and replaced with 100 μl/well of incubation media (DMEM high glucose (+sodium pyruvate for HepG2) (Wisent)+0.07% BSA (Sigma-Aldrich)) containing compound at various concentrations ([…]) or DMSO control (0.4% final). Each condition was prepared in triplicates. After 6 hours incubation at 37° C., Dil-LDL (Biomedical Technologies (Cat #BT-904)) was added to the cell media (5 μl) at 5 μg/ml final concentration, and cells returned to tissue culture incubator for another 18 hours (a total of 24 hours incubation with the compounds). After 2 washes (200 μl/well) with ice-cold D-PBS (Wisent) and aspiration of the final wash, plates were scanned (bottom read) on a SpectraMax GeminiEM™ plate reader (Molecular Devices). For each well, raw Dil-LDL uptake was measured as the average fluorescence intensity (RFU) (ex: 520 nm/em: 575 nm, cutoff: 550 nm) of 9 readings in 3 different points in the well. Dil-LDL uptake in each well was corrected for total number of cells by performing a CyQuant™ cell assay (Invitrogen; Cat #C7026). Namely, after recording the Dil fluorescence, the plate was frozen overnight at −80° C. The next day, the plates were thawed at room temperature, the cells lysed according to the manufacturer's protocol, and the number of cells/well was determined by measuring the fluorescence (RFU) of the CyQuant green fluorescent dye bound to the cellular nucleic acids (ex: 485 nm/em: 538 nm, cutoff: 515 nm). For each condition, Dil-RFU was divided by CyQuant-RFU. Corrected dil-LDL uptake is reported as % DMSO control and was obtained from triplicate wells.
The PCSK9 inhibitory compounds were also characterized using a Dil-LDL fluorescent uptake assay as described in Poirier et al., J. Biol. Chem. 284: 28856-28864, 2009. The method entails the fluorescence measurement of the Dil-LDL cellular incorporation via LDLR internalization (a measurement of cell surface LDLR activity) in human hepatocyte derived HuH7 or HepG2 cell lines, or human embryonic HEK293 cells, in the presence or absence of compounds.
HepG2 naïve cells and HEK293 naïve cells were plated in 96-well plates (CellBind™ black plate with clear bottom (Corning; Cat #3340)). At 20 h post-seeding, cells were incubated in the absence (DMSO or negative control) or in the presence of different concentrations of compounds. Each condition was prepared in triplicates. After 6 hours incubation, Dil-LDL (Biomedical Technologies (Cat #BT-904)) was added to the cell media, and cells returned to tissue culture incubator for another 18 hours. Plates were scanned (bottom read) on a SpectraMax GeminiEM™ plate reader (Molecular Devices). For each well, raw Dil-LDL uptake was measured as the average fluorescence intensity (RFU) (ex: 520 nm/em: 575 nm, cutoff: 550 nm) of 9 readings in 3 different points in the well. Dil-LDL uptake in each well was corrected for total number of cells by performing a CyQuant™ cell assay (Invitrogen, Cat #C7026) according to the manufacturer's instructions. Corrected Dil-LDL uptake is reported as a % of DMSO control and was obtained from triplicate wells.

cell-surface LDLR = test: Immunofluorescence of cell-surface LDLR in HepG2 naïve cells; conditions: 33.3 μM, 20 h, non-permeabilized cells
Procedure: HepG2 naïve cells were plated on Poly-L-Lysine-coated (50 ug/ml) round microscope cover slips 1.12 mm thickness (Fisherbrand 12CIR #1) that were placed in a 24-well cell culture plate. Seeding was performed in DMEM complete media (10% FBS) and 24 hours later the media was swapped for media (+0.07% BSA) containing 33.3 μM of the different inhibitor compounds (300 μl/well). A volume of DMSO equivalent to the volume of inhibitor compound was also diluted in 0.07% BSA containing media and used as a negative control. After a 20 hour incubation period, the cells were washed 3× with PBS and then fixed for 10 min with 3.7% paraformaldehyde. Immunofluorescence of human LDLR (green labeling) was performed under non-permeabilizing conditions. After an additional 3 washes with PBS, cells were blocked for 30 min with 1% BSA, followed by overnight incubation at 4° C. with primary antibody (1:200 goat polyclonal anti-hLDLR in 1% BSA, R&D Systems). […] Immunofluorescence analyses were performed with a confocal miscroscope (Zeiss LSM-710).
The PCSK9 inhibitory compounds were characterized by immunofluorescence for cell-surface LDLR and for human transferrin receptor, as control, in HepG2 naïve cells. Cells were plated on Poly-L-Lysine-coated (50 ug/ml) round microscope cover slips 1.12 mm thickness (Fisherbrand 12CIR #1) that were placed in a 24-well cell culture plate. […]

[2] = tested on: HepG2 stable cells over-expressing WT PCSK9(+V5); test: MTT toxicity assay; conditions: 33.3 μM or less; 24 h
Procedure: HepG2 stable cells over-expressing hPCSK9(+V5) were seeded in complete DMEM (high glucose+sodium pyruvate) (Wisent)+10% FBS media in 96-well plates (Greiner BioOne) at a density of 1×10^5 cells/well (100 μl) and incubated for 20 hours. Cells were rinsed once with 100 ul/well of serum free DMEM media, followed by addition of 100 μl/well of DMEM (high glucose+sodium pyruvate) (Wisent)+0.07% BSA (Sigma-Aldrich) media containing compound at various concentrations (11, 33, 100 μM) or DMSO control (0.4% final) followed by overnight (24 hours) incubation. The MTT assay (Promega) consisted of addition of 20 μl/well MTT reagent and incubation for 45 minutes at 37° C., following the manufacturer's instructions. Absorbance was recorded at 490 nm and corrected for background due to nonspecific absorbance (690 nm).
For the MTT toxicity assay, HepG2 stable cells over-expressing WT PCSK9(+V5) were seeded in 96-well plates (Greiner BioOne) and incubated for 20 hours. Following a brief wash, cells were incubated overnight (24 hours) in the presence of increasing concentrations (11, 33, 100 μM) of compounds or in the presence of DMSO (control). The MTT assay (Promega) consisted of addition of 20 μl/well MTT reagent and incubation for 45 minutes at 37° C., following the manufacturer's instructions. Absorbance was recorded at 490 nm and corrected for background due to nonspecific absorbance (690 nm). Compounds with a low toxicity at 33.3 μM or less were selected as exemplified in FIG. 3 for compounds 19, 22a, 23, 4 and 17.

COC(=O)N[C@H](C(=O)N[C@@H](Cc1ccccc1)C(=O)N[C@@H](C)C(=O)NCB(O)O)C(C)C [Example 1]
Dil-LDL uptake (FIG. 5A, in words) [1]: no measurable activity

CC(C)[C@H](NC(=O)c1ccc(-c2ccccc2)cc1)C(=O)N[C@@H](Cc1ccccc1)C(=O)N[C@@H](C)C(=O)NCB(O)O [Example 2, {[(2S)-2-[(2S)-2-[(2S)-3-Methyl-2-[(4-phenylphenyl)formamido]butanamido]-3-phenylpropanamido]propanamido]methyl}boronic acid]
Dil-LDL uptake (FIG. 5A, in words) [1]: no measurable activity

CCCCCCCCCC(=O)N[C@H](C(=O)N[C@@H](Cc1ccccc1)C(=O)N[C@@H](C)C(=O)NC(CCC(N)=O)C(O)C(F)(F)F)C(C)C (stereo partly drawn) [Example 19, N-((2S)-1-(((2S)-1-(((2S)-1-((6-Amino-1,1,1-trifluoro-2-hydroxy-6-oxohexan-3-yl)amino)-1-oxopropan-2-yl)amino)-1-oxo-3-phenylpropan-2-yl)amino)-3-methyl-1-oxobutan-2-yl)decanamide]
Dil-LDL uptake (FIG. 5A, in words) [1]: increase in the Dil-LDL uptake
LDLR at the cell surface (immunofluorescence) (cell-surface LDLR): increase of LDLR at the cell surface
toxicity in MTT assay [2]: low toxicity

COC(=O)CCC(NC(=O)[C@H](C)NC(=O)[C@H](Cc1ccccc1)NC(=O)[C@@H](NC(=O)OC)C(C)C)B(O)O (mixture of isomers) [Example 17, [(1R/S)-4-Methoxy-1-[(2S)-2-[(2S)-2-[(2S)-2-[(methoxycarbonyl)amino]-3-methylbutanamido]-3-phenylpropanamido]propanamido]-4-oxobutyl]boronic acid]
Dil-LDL uptake (FIG. 5A, in words) [1]: no measurable activity
toxicity in MTT assay [2]: low toxicity

CCCCCCCCCC(=O)N[C@H](C(=O)N[C@@H](Cc1ccccc1)C(=O)NC(C)C(=O)NC(CCC(N)=O)C(C)O)C(C)C (single isomer, unassigned) [Example 22a]
Dil-LDL uptake (FIG. 5A, in words) [1]: increase in the Dil-LDL uptake
toxicity in MTT assay [2]: low toxicity

CC(C)[C@H](NC(=O)Cc1ccc(OC(F)(F)F)cc1)C(=O)N[C@@H](Cc1ccccc1)C(=O)N[C@@H](C)C(=O)NC(CCC(N)=O)C(O)C(F)(F)F (stereo partly drawn) [Example 23, 6,6,6-Trifluoro-5-hydroxy-4-((S)-2-((S)-2-((S)-3-methyl-2-(2-(4-(trifluoromethoxy)phenyl)acetamido)butanamido)-3-phenylpropanamido)propanamido)hexanamide]
Dil-LDL uptake (FIG. 5A, in words) [1]: increase in the Dil-LDL uptake
toxicity in MTT assay [2]: low toxicity

CCCCCCCCCC(=O)N[C@H](C(=O)N[C@@H](Cc1ccccc1)C(=O)N[C@@H](C)C(=O)NCB(O)O)C(C)C [Example 4, {[(2S)-2-[(2S)-2-[(2S)-2-Decanamido-3-methylbutanamido]-3-phenylpropanamido]propanamido]methyl}boronicacid]
toxicity in MTT assay [2]: low toxicity

CCCCCCCCCC(=O)N[C@H](C(=O)N[C@@H](Cc1ccccc1)C(=O)N[C@@H](C)C(=O)NC(CCC(N)=O)C(O)CF)C(C)C (stereo partly drawn) [Example 21a, N-((2S)-1-(((2S)-1-(((2S)-1-((6-Amino-1-fluoro-2-hydroxy-6-oxohexan-3-yl)amino)-1-oxopropan-2-yl)amino)-1-oxo-3-phenylpropan-2-yl)amino)-3-methyl-1-oxobutan-2-yl)decanamide]
Dil-LDL uptake (FIG. 5A, in words) [1]: increase in the Dil-LDL uptake
